We go through 13 compounds from ChEMBL document CHEMBL1155461, “Emerging targets in osteoporosis disease modification” (J Med Chem, 2010).

Experiment [1] has as its system Homo sapiens. Put plainly: Antiosteoporotic activity in postmenopausal woman with osteoporosis assessed as increase lumbar spine bone mineral density at 50 mg/kg. Type of experiment: functional.
Experiment [2] has as its system Homo sapiens. Put plainly: Antiosteoporotic activity in postmenopausal woman with osteoporosis assessed as decrease in bone resorption-associated urinary CTX-1 level at 50 mg/kg. It counts as functional. The note with it: Urine.
For experiment [3], the system named is Homo sapiens. Put plainly: Antiosteoporotic activity in postmenopausal woman with osteoporosis assessed as increase hip bone mineral density at 50 mg/kg. It counts as functional, Bone of hip region.
Experiment [4] relates to Homo sapiens. Put plainly: Antiosteoporotic activity in postmenopausal woman with osteoporosis assessed as decrease in bone resorption-associated serum CTX-1 level at 50 mg/kg. Type of experiment: functional.
The subject of another experiment is Osteoclast. Description: Inhibition of osteoclastogenesis in RANKL/M-CSF-stimulated osteoclast. Type of experiment: functional, cell-based.
Experiment [5] deals with Rattus norvegicus. Put plainly: Short duration (5-10 min) elevation in PTH as Cmax in rats after 10 umol/kg intravenous dose. It counts as functional, organism-based.
Experiment [6] has as its target T1, Extracellular calcium-sensing receptor (Homo sapiens, UniProt P41180).
T1 sequence (P41180 whole entry): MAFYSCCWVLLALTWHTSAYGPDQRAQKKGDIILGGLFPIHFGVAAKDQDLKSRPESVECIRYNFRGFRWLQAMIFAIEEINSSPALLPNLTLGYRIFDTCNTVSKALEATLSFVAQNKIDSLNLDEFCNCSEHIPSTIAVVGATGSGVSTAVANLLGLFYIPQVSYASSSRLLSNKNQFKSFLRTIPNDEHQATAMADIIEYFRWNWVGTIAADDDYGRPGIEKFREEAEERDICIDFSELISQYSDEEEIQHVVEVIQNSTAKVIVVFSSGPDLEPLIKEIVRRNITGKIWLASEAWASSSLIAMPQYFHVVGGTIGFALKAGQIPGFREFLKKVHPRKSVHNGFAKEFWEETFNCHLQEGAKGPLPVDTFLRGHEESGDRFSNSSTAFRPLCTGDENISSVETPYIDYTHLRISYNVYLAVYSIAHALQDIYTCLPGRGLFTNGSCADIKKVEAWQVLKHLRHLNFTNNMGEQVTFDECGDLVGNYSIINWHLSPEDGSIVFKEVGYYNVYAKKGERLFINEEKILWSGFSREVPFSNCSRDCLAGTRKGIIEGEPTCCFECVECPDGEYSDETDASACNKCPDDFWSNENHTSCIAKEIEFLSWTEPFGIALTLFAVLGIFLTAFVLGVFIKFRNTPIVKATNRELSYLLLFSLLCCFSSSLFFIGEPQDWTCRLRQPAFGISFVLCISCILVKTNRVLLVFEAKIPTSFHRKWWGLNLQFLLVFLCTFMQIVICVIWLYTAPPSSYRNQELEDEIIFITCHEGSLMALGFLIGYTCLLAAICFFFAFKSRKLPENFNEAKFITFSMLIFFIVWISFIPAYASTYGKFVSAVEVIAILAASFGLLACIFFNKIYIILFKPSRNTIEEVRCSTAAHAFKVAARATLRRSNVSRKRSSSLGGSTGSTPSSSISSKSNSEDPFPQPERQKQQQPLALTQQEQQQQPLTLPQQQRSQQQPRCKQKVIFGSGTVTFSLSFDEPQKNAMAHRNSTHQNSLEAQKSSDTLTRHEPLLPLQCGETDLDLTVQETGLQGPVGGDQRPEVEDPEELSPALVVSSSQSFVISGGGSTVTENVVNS

The target in experiment [7] is T2, Integrin alpha-V/beta-3 (Homo sapiens, UniProt P05106+P06756).
A short description of experiment [8]: Selectivity for integrin alphaVbeta3 over integrin alphaVbeta5.
The target of the next experiment is Cathepsin K (Homo sapiens, UniProt P43235).
A short description of experiment [9]: Selectivity for cathepsin K over cathepsin L.
Experiment [10] is described as follows: Selectivity for cathepsin K over cathepsin B.
Experiment [11] can be described thus: Selectivity for cathepsin K over cathepsin S.
Experiment [12] addresses T2, Integrin alpha-V/beta-3. Put plainly: Inhibition of integrin alpha-V-beta-3-mediated adhesion of human cells M21 cells. Type of experiment: cell-based.
The subject of experiment [13] is MC3T3-E1. Description: Induction of osteogenesis in mouse MC3T3-E1 cells assessed as increase in bone mineralization at 1 uM. Type of experiment: functional.
Experiment [14] has as its system MC3T3-E1. Description: Induction of osteogenesis in mouse MC3T3-E1 cells assessed as increase in osteoblast differentiation-associated ALP level at 0.01 uM. It counts as functional.
For experiment [15], the system named is MC3T3-E1. Description: Induction of osteogenesis in mouse MC3T3-E1 cells assessed as increase in bone mineralization at 0.03 uM. It counts as functional.
In experiment [16] the test system is MC3T3-E1. Put plainly: Induction of osteogenesis in mouse MC3T3-E1 cells assessed as increase in osteoblast differentiation-associated collagen synthesis at 0.03 uM. Type of experiment: functional.
For experiment [17], the system named is MC3T3-E1. Put plainly: Induction of osteogenesis in mouse MC3T3-E1 cells assessed as increase in osteoblast differentiation-associated ALP level at 0.03 uM. It counts as functional.
Experiment [18] has as its system Rattus norvegicus. Put plainly: Short duration (5-10 min) elevation in PTH as Cmax in rats after 3 umol/kg intravenous dose. It counts as functional.
The test system of experiment [19] is MC3T3-E1. Put plainly: Induction of osteogenesis in mouse MC3T3-E1 cells assessed as increase in osteoblast differentiation-associated collagen synthesis at 0.01 uM. Type of experiment: functional.
Experiment [20] relates to Homo sapiens. Description: Antiosteoporotic activity in men with osteoporosis assessed as decrease in bone resorption-associated urinary CTX-1 level at 250 mg/kg after 10 to 14 days. Type of experiment: functional. The note with it: Urine.
Experiment [21] concerns Homo sapiens. Description: Antiosteoporotic activity in men with osteoporosis assessed as decrease in bone resorption-associated serum CTX-1 level at 250 mg/kg after 10 to 14 days. More on the design: dose 250 mg/kg. The note with it: dose 250 mg/kg. It counts as functional, organism-based.

Cathepsin K, sequence (P43235 whole entry): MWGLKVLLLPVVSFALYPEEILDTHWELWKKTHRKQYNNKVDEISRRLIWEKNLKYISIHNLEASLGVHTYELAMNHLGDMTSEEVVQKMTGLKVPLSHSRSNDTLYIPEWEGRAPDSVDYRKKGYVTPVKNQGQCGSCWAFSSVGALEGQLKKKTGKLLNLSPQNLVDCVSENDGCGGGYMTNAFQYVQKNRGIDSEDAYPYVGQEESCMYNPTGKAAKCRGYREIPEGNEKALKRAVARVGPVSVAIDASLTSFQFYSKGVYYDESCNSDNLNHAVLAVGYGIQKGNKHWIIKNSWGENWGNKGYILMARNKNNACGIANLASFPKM
T2 sequence (P05106 27-788 limits assumed): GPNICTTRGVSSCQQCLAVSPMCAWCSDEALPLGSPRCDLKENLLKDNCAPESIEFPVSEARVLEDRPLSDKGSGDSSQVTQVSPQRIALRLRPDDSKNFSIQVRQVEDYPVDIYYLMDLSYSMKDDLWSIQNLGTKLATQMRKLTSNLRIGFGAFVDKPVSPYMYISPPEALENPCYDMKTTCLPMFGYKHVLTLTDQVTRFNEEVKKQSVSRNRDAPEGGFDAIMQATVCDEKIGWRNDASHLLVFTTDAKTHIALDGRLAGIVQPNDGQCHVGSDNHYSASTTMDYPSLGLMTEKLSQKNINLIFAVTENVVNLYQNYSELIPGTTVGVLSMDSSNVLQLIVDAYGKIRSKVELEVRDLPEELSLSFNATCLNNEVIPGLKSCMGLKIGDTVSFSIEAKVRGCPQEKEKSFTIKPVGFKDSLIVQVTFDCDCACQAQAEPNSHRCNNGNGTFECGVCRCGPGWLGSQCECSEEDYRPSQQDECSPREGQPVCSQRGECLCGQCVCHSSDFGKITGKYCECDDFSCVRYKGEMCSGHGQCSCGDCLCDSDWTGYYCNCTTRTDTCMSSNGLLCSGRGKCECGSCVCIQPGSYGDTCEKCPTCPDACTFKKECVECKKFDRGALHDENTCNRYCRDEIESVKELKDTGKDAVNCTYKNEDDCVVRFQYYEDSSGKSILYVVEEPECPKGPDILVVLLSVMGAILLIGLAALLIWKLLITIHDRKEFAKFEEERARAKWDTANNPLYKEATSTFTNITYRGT
T2 sequence (P06756 31-889 limits assumed): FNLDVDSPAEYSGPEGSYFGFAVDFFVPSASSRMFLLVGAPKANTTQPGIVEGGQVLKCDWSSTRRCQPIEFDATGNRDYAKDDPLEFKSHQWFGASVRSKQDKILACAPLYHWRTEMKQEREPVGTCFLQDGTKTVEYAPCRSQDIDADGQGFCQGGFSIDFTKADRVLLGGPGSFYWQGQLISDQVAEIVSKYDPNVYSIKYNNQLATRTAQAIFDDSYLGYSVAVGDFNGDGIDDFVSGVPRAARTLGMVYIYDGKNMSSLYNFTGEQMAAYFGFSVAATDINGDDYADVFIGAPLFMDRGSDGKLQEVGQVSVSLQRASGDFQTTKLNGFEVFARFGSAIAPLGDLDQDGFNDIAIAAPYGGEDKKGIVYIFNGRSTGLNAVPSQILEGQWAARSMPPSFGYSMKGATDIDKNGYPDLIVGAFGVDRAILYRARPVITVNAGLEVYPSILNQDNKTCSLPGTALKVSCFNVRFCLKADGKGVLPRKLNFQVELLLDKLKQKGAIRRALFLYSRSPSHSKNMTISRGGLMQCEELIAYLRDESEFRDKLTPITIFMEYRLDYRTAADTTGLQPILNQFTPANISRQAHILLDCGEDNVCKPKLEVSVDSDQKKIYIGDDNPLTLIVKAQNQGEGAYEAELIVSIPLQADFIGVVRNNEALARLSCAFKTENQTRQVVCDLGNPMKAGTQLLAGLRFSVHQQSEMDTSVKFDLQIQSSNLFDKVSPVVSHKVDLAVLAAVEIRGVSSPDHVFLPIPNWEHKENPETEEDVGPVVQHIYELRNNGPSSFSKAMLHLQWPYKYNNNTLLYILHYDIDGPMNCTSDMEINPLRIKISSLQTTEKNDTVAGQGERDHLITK
T2 sequence (P06756 891-1048 limits assumed): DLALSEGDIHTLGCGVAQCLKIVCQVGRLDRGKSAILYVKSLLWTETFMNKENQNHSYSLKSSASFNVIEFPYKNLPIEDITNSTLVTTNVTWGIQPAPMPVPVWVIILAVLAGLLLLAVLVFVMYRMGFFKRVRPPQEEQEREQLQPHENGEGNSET

One may read the inhibition in vivo as how much of the control response was suppressed. For `CCCN1CCN(c2ccc(C(=O)NC3(C(=O)NCC#N)CCCCC3)cc2)CC1` [BALICATIB], the Activity in the experiment with Homo sapiens [1] was determined as 4.46%; in the experiment on Homo sapiens [3], 2.25%. Also, the results for the inhibition in vivo at 50 mg/kg in the experiment with Homo sapiens [2] and in the experiment with Homo sapiens [4] were 55% and 61%, respectively.
What is called IC50 is the midpoint of a concentration-inhibition curve. Compound `CC1(C)C(=O)CC[C@]2(C)[C@@H]1CC[C@@]13CC4[C@@H](C[C@H]12)[C@]4(C(=O)O)C3` displayed an IC50 with Osteoclast of 4000 nM.
For `O=c1c2ccccc2nc(-c2ccccc2O)n1CCc1ccccc1`, the Cmax PTH in the experiment with Rattus norvegicus [5] was 400 pg/mL.
On to `CCOC(=O)CCc1ccc(C#N)c(OC[C@H](O)CNC(C)(C)CC2Cc3ccccc3C2)c1`, for which the IC50 in [6] came to 520 nM.
On Integrin alpha-V/beta-3 [7], `CC(C)(C)OC(=O)[C@@H]1C[C@H](CC(=O)O)[C@H]2CC[C@H](NC(=O)[C@@H](N)CCCNC(=N)N)C(=O)N21` displayed an IC50 of 304 nM. For the same compound, the Selectivity ratio in [8] came out at 3.5.
One may read the Ki as a measure of affinity in units of concentration, obtained from inhibition or displacement. Read a low Ki as a stronger hold on the target. `CN1CCN(c2nc(-c3ccc(C(=O)NC4(C(=O)N[C@@H]5C(=O)N[C@@H]5Oc5ccccc5)CCCCC4)cc3)cs2)CC1`: the Ki on Cathepsin K was 4.8 nM. For the same compound, the Selectivity ratio in [9] turned out to be 500; in experiment [10], 71; in experiment [11], 3540.
Regarding `N=C(N)N=C(N)Nc1cc(Cl)cc(Cl)c1`, on Integrin alpha-V/beta-3 [12], the IC50 was found to be 33.5 nM.
In the case of `COc1cc2c(O)c3c(O)c(OC)c(O[C@@H]4O[C@H](CO)[C@@H](O)[C@H](O)[C@H]4O)cc3c(O)c2c(O)c1OC`, the Activity was determined as 115% with MC3T3-E1 [13] and 135% in the experiment on MC3T3-E1 [14].
With `C=CCc1ccc(O)c(O[C@@H]2O[C@H](CO[C@@H]3OC[C@](O)(CO)[C@H]3O)[C@@H](O)[C@H](O)[C@H]2O)c1` [MANGLIESIDE B], the results for the Activity with MC3T3-E1 [15], in the experiment with MC3T3-E1 [16] and in the experiment on MC3T3-E1 [17] were 118%, 123% and 114%, respectively.
The compound `CCc1cc2c(=O)n(CCc3ccccc3F)c(-c3ccccc3O)nc2cc1C` showed a Cmax PTH in the experiment on Rattus norvegicus [18] of 600 pg/mL. The IC50 in experiment [6] worked out at 97 nM.
As to `COc1c(O)cc2c(O)c3c(O)c(O)c(O[C@@H]4O[C@@H](C)[C@H](O)[C@@H](O)[C@H]4O)cc3c(O)c2c1O`, the Activity in the experiment with MC3T3-E1 [13] turned out to be 125%; with MC3T3-E1 [19], 111%.
On to `CC(C)(C)Cn1c(CN2C(=O)CC3(CCNCC3)C2=O)cc2cnc(C#N)nc21`, for which the IC50 at Cathepsin K was less than 1 nM. In addition, the Selectivity ratio is more than 1000 in [9] and more than 10000 in experiment [11].
`CN1CCN(CCOc2cc(OC3CCOCC3)c3c(Nc4c(Cl)ccc5c4OCO5)ncnc3c2)CC1` [SARACATINIB]: the values for the inhibition in vivo at 250 mg/kg in the experiment on Homo sapiens [20] and in the experiment with Homo sapiens [21] were 67% and 88%, respectively.
